Experimental findings from PMC8601599, “Computational redesign of a fluorogen activating protein with Rosetta” (PLoS Computational Biology, 2021) are described below.

Structures are written as SMILES. Substitutions are numbered along the chain they refer to.

What all share (assay): fluorescence titration
Common to all, as to format: binding

The target of assay [1] is T1, DiB-RM-split (Escherichia coli, UniProt P0A901, A36C/F53A/N76F/S89Y/E90V/S107A/L141N).
T1 construct: gene blc; two co-expressed self-assembling fragments of DiB-RM split between residues 109 and 110; E. coli XJb(DE3), TALON then size exclusion
T1 sequence (P0A901 20-109 A36C/F53A/N76F/S89Y/E90V/S107A): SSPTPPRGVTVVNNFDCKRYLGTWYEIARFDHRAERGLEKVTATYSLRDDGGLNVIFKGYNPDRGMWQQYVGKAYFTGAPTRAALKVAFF
T1 sequence (P0A901 110-177 L141N): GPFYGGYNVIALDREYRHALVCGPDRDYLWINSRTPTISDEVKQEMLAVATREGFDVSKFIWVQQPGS
Conditions: apparent Kd, 1 μM chromophore, varied protein, excitation 490 nm. The text has this: fluorescence titration on DiB-RM-split

Assay [2] addresses T2, DiB1; DiB-RM (lipocalin Blc mutants) (Escherichia coli, UniProt P0A901, A36C/F53A/N76F/E90V/S107A/L141N).
T2 construct: E. coli XJb(DE3) expression from pBAD, TALON then size exclusion; monomer in solution
T2 sequence (P0A901 20-177 A36C/F53A/N76F/E90V/S107A/L141N): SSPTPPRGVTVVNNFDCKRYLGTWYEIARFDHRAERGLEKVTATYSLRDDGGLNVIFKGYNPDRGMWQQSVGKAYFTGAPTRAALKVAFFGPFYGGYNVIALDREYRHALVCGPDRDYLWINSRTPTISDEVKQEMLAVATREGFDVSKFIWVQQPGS
Conditions: DiB-RM-Y89S; apparent Kd; 1 μM chromophore, varied protein; excitation 490 nm. The text has this: (§1) fluorescence titration on DiB1; DiB-RM (lipocalin Blc mutants)

The target of assay [3] is T3, DiB1; DiB-RM (lipocalin Blc mutants) (Escherichia coli, UniProt P0A901, A36C/F53A/N76F/S89Y/E90V/L141N).
T3 construct: E. coli XJb(DE3) expression from pBAD, TALON then size exclusion; monomer in solution
T3 sequence (P0A901 20-177 A36C/F53A/N76F/S89Y/E90V/L141N): T2 sequence (P0A901 20-177 A36C/F53A/N76F/E90V/S107A/L141N) with S70Y, A88S
Conditions: DiB-RM-A107S; apparent Kd; 1 μM chromophore, varied protein; excitation 490 nm.
From the text: as §1

The target of assay [4] is T4, DiB1; DiB-RM (lipocalin Blc mutants) (Escherichia coli, UniProt P0A901, A36C/F53A/N76F/S89Y/E90V/S107A/L141N).
T4 construct: E. coli XJb(DE3) expression from pBAD, TALON then size exclusion; monomer in solution
T4 sequence (P0A901 20-177 A36C/F53A/N76F/S89Y/E90V/S107A/L141N): T2 sequence (P0A901 20-177 A36C/F53A/N76F/E90V/S107A/L141N) with S70Y
Conditions: apparent Kd, 1 μM chromophore, varied protein, excitation 490 nm.
From the text: as §1

The target in assay [5] is T5, DiB1; DiB-RM (lipocalin Blc mutants) (Escherichia coli, UniProt P0A901, A36C/F53A/N76F/S89Y/S107A/L141N).
T5 construct: E. coli XJb(DE3) expression from pBAD, TALON then size exclusion; monomer in solution
T5 sequence (P0A901 20-177 A36C/F53A/N76F/S89Y/S107A/L141N): T2 sequence (P0A901 20-177 A36C/F53A/N76F/E90V/S107A/L141N) with S70Y, V71E
Conditions: DiB-RM-V90E; apparent Kd; 1 μM chromophore, varied protein; excitation 490 nm.
From the text: as §1

For assay [6], the target named is T6, DiB1; DiB-RM (lipocalin Blc mutants) (Escherichia coli, UniProt P0A901, A36C/F53A/S89Y/E90V/S107A/L141N).
T6 construct: E. coli XJb(DE3) expression from pBAD, TALON then size exclusion; monomer in solution
T6 sequence (P0A901 20-177 A36C/F53A/S89Y/E90V/S107A/L141N): T2 sequence (P0A901 20-177 A36C/F53A/N76F/E90V/S107A/L141N) with F57N, S70Y
Conditions: DiB-RM-F76N; apparent Kd; 1 μM chromophore, varied protein; excitation 490 nm.
From the text: as §1

The target in assay [7] is T7, DiB1; DiB-RM (lipocalin Blc mutants) (Escherichia coli, UniProt P0A901, A36C/L141N).
T7 construct: E. coli XJb(DE3) expression from pBAD, TALON then size exclusion; monomer in solution
T7 sequence (P0A901 20-177 A36C/L141N): T2 sequence (P0A901 20-177 A36C/F53A/N76F/E90V/S107A/L141N) with A34F, F57N, V71E, A88S
Conditions: apparent Kd, 1 μM chromophore, varied protein, excitation 490 nm.
From the text: as §1

Assay [8] concerns the target T8, DiB1; DiB-RM (lipocalin Blc mutants) (Escherichia coli, UniProt P0A901, A36C/N76F/S89Y/E90V/S107A/L141N).
T8 construct: E. coli XJb(DE3) expression from pBAD, TALON then size exclusion; monomer in solution
T8 sequence (P0A901 20-177 A36C/N76F/S89Y/E90V/S107A/L141N): T2 sequence (P0A901 20-177 A36C/F53A/N76F/E90V/S107A/L141N) with A34F, S70Y
Conditions: DiB-RM-A53F; apparent Kd; 1 μM chromophore, varied protein; excitation 490 nm.
From the text: as §1

As to `CCN(CC)c1ccc2c(c1)[B-](F)(F)[N+]1=C(C)N(C)C(=O)C1=C2` [M739], the Kd in assay [1] was found to be 2800 ± 400 nM; in assay [2], 660 ± 80 nM; in assay [3], 290 ± 40 nM; in assay [4] it was 170 ± 40 nM; in assay [5], 380 ± 50 nM; in assay [6], 70 ± 10 nM. For the same molecule, the figures for the Kd in assay [7] and in assay [8] were 40 ± 30 nM and 160 ± 40 nM, respectively.
